Data taken from publication PMC1779548, “Antihuman Immunodeficiency Virus Type 1 (HIV-1) Activity of Rare Earth Metal Complexes of 4-Hydroxycoumarins in Cell Culture” (Bioinorganic Chemistry and Applications, 2006).

Tests used:
in vitro = format: cell-based; settings: MT-2 cells, neutral red uptake, 72 h
Excerpt: (§1) The following cell lines were used: H9/HTLV III B—chronically infected with HIV-1LAI cells, kindly provided by Professor R. Gallo, and MT-2 uninfected human lymphoblastoid cells, HTLV-I transformed. The cells were maintained in RPMI 1640 plus 10% FCS.
(§2) The following parameters were studied: cytotoxic concentration 50—CC50 (concentration […] death of 50% of MT-2 cells), maximal nontoxic concentration—MNC (the highest concentration causing no cytotoxicity), and inhibitory concentration 50–IC50 (concentration inhibiting by 50% the viral replication). CC50 and MNC were detected by neutral red uptake assay. IC50 was studied on MT-2 cells by microtiter infection assay using neutral red uptake. Briefly, the experimental procedure under conditions of acute infection was performed in 96-well microplates in the following sequence:
(§3) • 100 μL MT-2 cells (4–5 × 10 ^4 cells); • 50 μL HIV-1 (undiluted or in the appropriate dilution to obtain multiplicity of infection ≥ 1); contact (2 hours at 37°C/5% CO2); when CC50 and MNC were detected, growth medium instead of virus has been added; • 50 μL sample of substance tested starting from 4× MNC (because this volume is 1/4 of the whole volume in the well) and 2- or 10-fold dilutions in growth medium.
(§4) The cells were incubated for 72 hours and then 100 μL of them were removed to another 96-well plate previously treated for an hour with 50 μg/mL poly-L-lysine (PLL) in volume 100 μL. A solution of 100 μL per well of neutral red in growth medium (0.016%) was added and the cells were incubated for 2 hours at 37°C/5% CO2. Neutral red dye was extracted by acidified alcohol (50% ethanol in 1% acetic acid) and measured colorimetrically at 540 nm. Each plate contained 8 cell control wells (no virus, no substance) for all kinds of experiments. When IC50 was detected, a row of 8 viral controls (plus virus, no substance) and rows of 8 experimental wells (plus virus, different dilutions of the substance) were performed. The values of optical density at 540 nm (OD540) were averaged for each row and the mean values of experimental and control rows were compared. As far as the ligands and their complexes were DMSO soluble, the appropriate controls of DMSO and DMSO + HIV-1 in growth medium were always considered.

MT-2 cells = experiment: in vitro; format: cell-based; settings: for MNC (maximal nontoxic concentration) / CC50 / MNC higher compared to La(1) and the ligand (1): MT-2 cells; for MNC (maximal nontoxic concentration) / CC50: neutral red uptake, 72 h; for MNC higher compared to La(1) and the ligand (1): ratio of MNC
Excerpt: as §1, §2, §3, §4

HIV-1 = settings: at MNC, 72 h incubation, supernatants of HIV-1 infected MT-2 cells, averaged after at least 3 experiments
Protocol: Endogenous RT activity of supernatants of HIV-1 infected MT-2 cells treated/untreated with complexes and ligands was tested by HS-Lenti Kit-RT assay (Cavidi, Sweden). The kit contained recombinant RT (rRT) as a standard which made possible quantitation of the RT in the sample. The method is nonradioactive and colorimetrically detects RT activity product (DNA) at 405 nm (OD405) [3].

HIV-1LAI = experiment: Microtiter infection assay (neutral red uptake), acute infection of MT-2 cells; format: cell-based; settings: for Inhibition (%): 2.5 μM, HIV-1LAI infected MT-2 cells; for anti-HIV potency (in words): MT-2/HIV-1, at or under MNC
Protocol: As a source of HIV-1, the supernatant of H9/HTLV III B cell line was used. The supernatants were collected and centrifuged to remove the cells, and virus stocks were prepared with known p24 antigen content, RT activity and infectivity. MT-2 cells were infected with HIV-1 (multiplicity of infection ≥ 1) in suspension (37°C/5% CO2) and then grown parallely with uninfected ones for 72 hours.
CC50 and MNC were detected by neutral red uptake assay. IC50 was studied on MT-2 cells by microtiter infection assay using neutral red uptake. Briefly, the experimental procedure under conditions of acute infection was performed in 96-well microplates in the following sequence:
as §3, §4

[1] = system: H9/HTLV III B cells chronically producing HIV-1LAI; experiment: Chronic infection: RT activity in supernatants of treated H9/HTLV III B cells; format: cell-based
Protocol: (§5) The effect of the compounds was also studied under conditions of chronic infection using productively HIV-infected cells (H9/HTLV III B). The production of infectious virions was measured again using the cytopathic effect of supernatants on MT-2 cells as described above.
(§6) To address further the target of HIV inhibition especially by La(W), a study of this complex for effect on late stages of HIV-1 life cycle (protease, budding, assembly) was carried out. To do this, we treated H9/HTLV III B cells—chronically producing HIV-1—with La(W) at 3 concentrations, starting from MNC. Also, 10× dilution of Indinavir was used as a reference for antiprotease effect. Table 7 represents the results for the effect of La(W) in 3 concentrations on late stages of HIV replication.

[2] = system: H9/HTLV III B cells chronically producing HIV-1LAI; experiment: Chronic infection: microtiter infection assay on MT-2 cells with supernatants of treated H9/HTLV III B cells; format: cell-based; settings: undiluted supernatant on MT-2 cells
Protocol: as §5, §6

Structure (SMILES) | CC50 at 72 h (in vitro) [µM] | MNC (maximal nontoxic concentration) (MT-2 cells) | HIV inhibition (%) Endogenous RT activity (HIV-1) | CC50 (MT-2 cells) [µM] | MNC higher compared to La(1) and the ligand (1) (MT-2 cells) | Inhibition (%) (HIV-1LAI; 72 h incubation) | anti-HIV potency (in words) (HIV-1LAI) | further results
O=c1oc2ccccc2c(O)c1C(c1ccccc1)c1c(O)c2ccccc2oc1=O [(1), 3,3′-benzylidenebis[4-hydroxycoumarin]] | 25 | 0,25 μM |  |  |  |  |  | 
CC(=O)CC(c1ccccc1)c1c(O)c2ccccc2oc1=O (centres unmarked) [(W), 4-hydroxy-3-(3-oxo-1-phenylbutyl)-2H-1-benzopyran-2-one, reference compound] | 250 | 25 µM | ∼ 1% |  |  |  |  | 
O.O.O=c1oc2ccccc2c([O-])c1C(c1ccccc1)c1c([O-])c2ccccc2oc1=O.[Ce+3].[OH-] [Ce(1)] |  | 12,5 μM | ∼ 1% | 25 | 10–50 times | 8,7% | limited anti-HIV potency | 
CC(C)(C)NC(=O)[C@@H]1CN(Cc2cccnc2)CCN1C[C@@H](O)C[C@@H](Cc1ccccc1)C(=O)N[C@H]1c2ccccc2C[C@H]1O [Indinavir] |  |  |  |  |  |  |  | RT activity of SNs OD405 ([1]; 0.05 μM): 1.454 OD405; RT activity of SNs OD405 ([1]; 0.5 μM): 1.400 OD405; RT activity of SNs OD405 ([1]; 5 μM): 1.154 OD405; RT activity of SNs OD405 ([1]; 50 μM): 0.903 OD405; Microtiter infection assay OD540 ([2]; 0.05 μM): 0.739 OD540; Microtiter infection assay OD540 ([2]; 0.5 μM): 0.633 OD540; Microtiter infection assay OD540 ([2]; 5 μM): 0.520 OD540; Microtiter infection assay OD540 ([2]; 50 μM): 0.375 OD540
O.O=c1oc2ccccc2c([O-])c1C(c1ccccc1)c1c([O-])c2ccccc2oc1=O.[La+3].[OH-] [La(1)] |  | 0,25 μM |  | 25 |  |  |  | 
O.O=c1oc2ccccc2c([O-])c1C(c1ccccc1)c1c([O-])c2ccccc2oc1=O.[Nd+3].[OH-] [Nd(1)] |  | 2.5 µM | ∼ 1% | 125 | 10–50 times | 10,4% | limited anti-HIV potency | lower cytotoxicity compared to the other lanthanides and the ligand (1) (MT-2 cells; ratio of CC50, MT-2 cells): at least 5 times; HIV inhibition (%) Microtiter infection assay (HIV-1LAI; at MNC, 72 h incubation, MT-2 cells, averaged after at least 3 experiments): 10.4%
